Counter-ions that a name gives are not always drawn. Like-named read-outs stand apart in the source and are kept apart here.
Columns and labels:
circulation of dogs = assay: effects on the circulation of dogs under continual intravenous infusion; assay type: in vivo, dog; conditions: for ED30: Canis lupus familiaris, iv; for effective period / heart's oxygen demand / peripheral cardiovascular system: in vivo; for contractility, cardiac frequency and cardiac output: increases occur at approximately parallel rates
Excerpt: Column 1: Infusion rate in μg/kg/min
Column 2: Cumulative dose in μg/kg
Rate of pressure increase in the left ventricle (dp/dt/max) in mm Hg·s^-1
ED30 =dosage for 30% increase in inotropy, in μg/kg
Max=maximum increase in percent in inotropy at dose μg/kg
Column 4: Cardiac frequency in n·min^-1
ED30 =dosage for 30% increase in frequency, in μg/kg
Max=maximum increase in percent in frequency at dose μg/kg
Column 5: Cardiac output ml·min^-1 ·kg^-1
Column 6: Diastolic blood pressure in mm Hg
Column 7: Number of animals used in the experiments
X=median values (initial value and after cumulative dose)
%=change in percent of initial value
In these experiments, the compounds were used in the form of hydrochlorides.

cat = assay: β-mimetic effect on contractility and cardiac frequency in anesthetized cat; assay type: in vivo; conditions: HCl salt
in vivo = conditions: rat, iv
β-receptor = conditions: M. J. Davey, Arch. Pharmacol. 179 (1973); cited from earlier work
rats = conditions: rat, intravenous, acute; HCl salt
[1] = dog, i.v. infusion, read-out: ED30, dosage for 30% increase in frequency
[2] = dog, i.v. infusion, read-out: ED30, dosage for 30% increase in inotropy
[3] = dog, 12,5 μg/kg/min, cumulative dose --
[4] = dog, at 50 μg/kg, i.v. infusion
[5] = dog, 1,00 μg/kg/min, cumulative 30,0 μg/kg
[6] = dog, 0,25 μg/kg/min, cumulative 15,0 μg/kg
[7] = dog, at 15 μg/kg, i.v. infusion
[8] = dog, 1,00 μg/kg/min, cumulative 10,0 μg/kg
[9] = dog, at 30 μg/kg, i.v. infusion
[10] = dog, 1,00 μg/kg/min, cumulative 20,0 μg/kg
[11] = dog, 0,125 μg/kg/min, cumulative dose --
[12] = dog, at 0,1875 (μg/kg), i.v. infusion
[13] = dog, 10,0 μg/kg/min, cumulative 200 μg/kg

CC(CCc1ccc(O)cc1)NCCc1ccc(O)c(O)c1 (stereo not drawn) [Dobutamine, reference compound]
ED30 (circulation of dogs; [1]): 23 µg/kg
ED30 (circulation of dogs; [2]): 7.5 µg/kg
frequency and cardiovascular dilation (circulation of dogs; at higher dosages): strong increases in frequency and in cardiovascular dilation
Cardiac frequency, change in percent of initial value (circulation of dogs; [3]): +8%
Cardiac frequency, median initial value - value after dose (circulation of dogs; [3]): 78-84 n.min^-1
Cardiac output, change in percent of initial value (circulation of dogs; [3]): +23%
Cardiac output, median initial value - value after dose (circulation of dogs; [3]): 152 to 186 mL/min/kg
Diastolic blood pressure, change in percent of initial value (circulation of dogs; [3]): +3%
Diastolic blood pressure, median initial value - value after dose (circulation of dogs; [3]): 101-103 mm Hg
dp/dt max, change in percent of initial value (circulation of dogs; [3]): +75%
dp/dt max, median initial value - value after dose (circulation of dogs; [3]): 3088-5410 mm Hg.s^-1
Max, maximum increase in percent in frequency (circulation of dogs; [4]): +56%
Max, maximum increase in percent in inotropy (circulation of dogs; [4]): +191%
effective period (circulation of dogs; dog): equal to the rather brief effective period of isoprenaline
inotropy (circulation of dogs; in words): strong rise in inotropy

OC(CNCCNc1ccccc1Cl)COc1ccccc1 (stereo not drawn) [Example 1, 3-[β-(2-chlorophenylamino)-ethyl]-amino-2-hydroxy-1-phenoxypropane]
HR, percent change from initial value in heart frequency (cat; D 0.01 mg/kg i.v.): +11%
dp/dt max, percent change from initial value, left ventricle (cat; D 0.01 mg/kg i.v.): +59%
ED30 (circulation of dogs; [1]): 20 µg/kg
ED30 (circulation of dogs; [2]): 11 µg/kg
Cardiac frequency, change in percent of initial value (circulation of dogs; [5]): +34%
Cardiac frequency, median initial value - value after cumulative dose (circulation of dogs; [5]): 80-107 n.min^-1
Cardiac output, change in percent of initial value (circulation of dogs; [5]): +69%
Cardiac output, median initial value - value after cumulative dose (circulation of dogs; [5]): 115 to 195 mL/min/kg
Diastolic blood pressure, change in percent of initial value (circulation of dogs; [5]): +2%
Diastolic blood pressure, median initial value - value after cumulative dose (circulation of dogs; [5]): 111-113 mm Hg
dp/dt max, change in percent of initial value (circulation of dogs; [5]): +76%
dp/dt max, median initial value - value after cumulative dose (circulation of dogs; [5]): 3028-5326 mm Hg.s^-1
Max, maximum increase in percent in inotropy (circulation of dogs; [4]): +91%
Max, maximum increase in percent in frequency (circulation of dogs; dog, at 60 μg/kg, i.v. infusion): +37%
LD50 (in vivo): 21000 µg/kg

Cc1cccc(C)c1NCCNCC(O)COc1ccccc1 (stereo not drawn) [Example 7, 3-[β-(2,6-dimethylphenylamino)-ethyl]-amino-2-hydroxy-1-phenoxypropane hydrochloride]
HR, percent change from initial value in heart frequency (cat; D 0.01 mg/kg i.v.): +14%
dp/dt max, percent change from initial value, left ventricle (cat; D 0.01 mg/kg i.v.): +104%
ED30 (circulation of dogs; [1]): 15 µg/kg
ED30 (circulation of dogs; [2]): 5 µg/kg
Cardiac frequency, change in percent of initial value (circulation of dogs; [6]): +30%
Cardiac frequency, median initial value - value after cumulative dose (circulation of dogs; [6]): 72-93 n.min^-1
Cardiac output, change in percent of initial value (circulation of dogs; [6]): +35%
Cardiac output, median initial value - value after cumulative dose (circulation of dogs; [6]): 138 to 185 mL/min/kg
Diastolic blood pressure, change in percent of initial value (circulation of dogs; [6]): -3%
dp/dt max, change in percent of initial value (circulation of dogs; [6]): +72%
dp/dt max, median initial value - value after cumulative dose (circulation of dogs; [6]): 3834-6590 mm Hg.s^-1
Max, maximum increase in percent in frequency (circulation of dogs; [7]): +30%
Max, maximum increase in percent in inotropy (circulation of dogs; [7]): +72%
LD50 (in vivo): 32000 µg/kg

O=[N+]([O-])c1cccc(NCCNCC(O)COc2ccccc2)c1 (stereo not drawn) [Example 16, 3-[β-(3-nitrophenylamino)-ethyl]-amino-2-hydroxy-1-phenoxypropane]
HR, percent change from initial value in heart frequency (cat; D 0.01 mg/kg i.v.): +13%
dp/dt max, percent change from initial value, left ventricle (cat; D 0.01 mg/kg i.v.): +57%
ED30 (circulation of dogs; [1]): 20 µg/kg
ED30 (circulation of dogs; [2]): 5 µg/kg
Cardiac frequency, change in percent of initial value (circulation of dogs; [8]): +13%
Cardiac frequency, median initial value - value after cumulative dose (circulation of dogs; [8]): 83-94 n.min^-1
Cardiac output, change in percent of initial value (circulation of dogs; [8]): +32%
Cardiac output, median initial value - value after cumulative dose (circulation of dogs; [8]): 129 to 169 mL/min/kg
dp/dt max, change in percent of initial value (circulation of dogs; [8]): +71%
dp/dt max, median initial value - value after cumulative dose (circulation of dogs; [8]): 3068-5230 mm Hg.s^-1
Max, maximum increase in percent in frequency (circulation of dogs; [9]): +39%
Max, maximum increase in percent in inotropy (circulation of dogs; [9]): +100%
LD50 (in vivo): 44000 µg/kg

Nc1cccc(NCCNCC(O)COc2ccccc2)c1 (stereo not drawn) [Example 17, 3-[β-(3-aminophenylamino)-ethyl]-amino-2-hydroxy-1-phenoxypropane trihydrochloride]
HR, percent change from initial value in heart frequency (cat; D 0.01 mg/kg i.v.): +19%
dp/dt max, percent change from initial value, left ventricle (cat; D 0.01 mg/kg i.v.): +84%
ED30 (circulation of dogs; [1]): 16 µg/kg
ED30 (circulation of dogs; [2]): 5.5 µg/kg
Cardiac frequency, change in percent of initial value (circulation of dogs; [10]): +33%
Cardiac frequency, median initial value - value after cumulative dose (circulation of dogs; [10]): 85-113 n.min^-1
Cardiac output, change in percent of initial value (circulation of dogs; [10]): +44%
Cardiac output, median initial value - value after cumulative dose (circulation of dogs; [10]): 138 to 198 mL/min/kg
Diastolic blood pressure, change in percent of initial value (circulation of dogs; [10]): +1%
Diastolic blood pressure, median initial value - value after cumulative dose (circulation of dogs; [10]): 103-104 mm Hg
dp/dt max, change in percent of initial value (circulation of dogs; [10]): +84%
dp/dt max, median initial value - value after cumulative dose (circulation of dogs; [10]): 3071-5663 mm Hg.s^-1
Max, maximum increase in percent in inotropy (circulation of dogs; dog, at 40 μg/kg, i.v. infusion): +93%
Max, maximum increase in percent in frequency (circulation of dogs; [4]): +49%
LD50 (in vivo): 66000 µg/kg

CC(C)NCC(O)c1ccc(O)c(O)c1 (stereo not drawn) [Isoprenaline-Sulphate, reference compound]
ED30 (circulation of dogs; [1]): 0.06 µg/kg
Cardiac frequency, change in percent of initial value (circulation of dogs; [11]): +51%
Cardiac frequency, median initial value - value after dose (circulation of dogs; [11]): 76-115 n.min^-1
Cardiac output, change in percent of initial value (circulation of dogs; [11]): +94%
Cardiac output, median initial value - value after dose (circulation of dogs; [11]): 130 to 253 mL/min/kg
Diastolic blood pressure, change in percent of initial value (circulation of dogs; [11]): -3%
dp/dt max, change in percent of initial value (circulation of dogs; [11]): +64%
dp/dt max, median initial value - value after dose (circulation of dogs; [11]): 3136-5140 mm Hg.s^-1
Max, maximum increase in percent in frequency (circulation of dogs; [12]): +75%
Max, maximum increase in percent in inotropy (circulation of dogs; [12]): +116%
effective period (circulation of dogs; dog): rather brief
heart's oxygen demand (circulation of dogs; dog): excessive rise in the heart's oxygen demand
peripheral cardiovascular system (circulation of dogs; dog): a dilation of the peripheral cardiovascular system
contractility, cardiac frequency and cardiac output (circulation of dogs): increases in contractility, cardiac frequency and cardiac output

CC(C)NCC(O)COc1cccc2ccccc12 (stereo not drawn) [Propranolol, reference compound]
HR, percent change from initial value in heart frequency (cat; D 0.10 mg/kg i.v.): -8%
dp/dt max, percent change from initial value, left ventricle (cat; D 0.10 mg/kg i.v.): -8%

Cc1ccccc1OCC(O)CNCCOc1ccc(C(N)=O)cc1 (stereo not drawn) [Tolamolol, 1-[2-(4-carbamoylphenoxy)-ethylamino]-3-(2-methylphenoxy)-propan-2-ol, reference compound]
HR, percent change from initial value in heart frequency (cat; D 0.10 mg/kg i.v.): -10%
dp/dt max, percent change from initial value, left ventricle (cat; D 0.10 mg/kg i.v.): -17%
intrinsic sympathicomimetic activity (β-receptor): does not exhibit an "intrinsic sympathicomimetic activity"
β-blocking efficacy compared with propranolol (β-receptor): about equal to that of propranolol
β-receptor blocking selectivity (β-receptor): cardioselective β-receptor blocking agent
LD50 (in vivo): 133000 µg/kg

COc1cccc(C(=O)CCN[C@@H](C)[C@H](O)c2ccccc2)c1.Cl [d-l-Oxyphedrine Hydrochloride, reference compound]
HR, percent change from initial value in heart frequency (cat; D 0.50 mg/kg i.v.): +2%
dp/dt max, percent change from initial value, left ventricle (cat; D 0.50 mg/kg i.v.): +38%
Cardiac frequency, change in percent of initial value (circulation of dogs; [13]): +56%
Cardiac frequency, median initial value - value after cumulative dose (circulation of dogs; [13]): 75-117 n.min^-1
Cardiac output, change in percent of initial value (circulation of dogs; [13]): +65%
Cardiac output, median initial value - value after cumulative dose (circulation of dogs; [13]): 112 to 186 mL/min/kg
Diastolic blood pressure, change in percent of initial value (circulation of dogs; [13]): -13%
dp/dt max, change in percent of initial value (circulation of dogs; [13]): +50%
dp/dt max, median initial value - value after cumulative dose (circulation of dogs; [13]): 3072-4600 mm Hg.s^-1
Max, maximum increase in percent in inotropy (circulation of dogs; dog, at 500 μg/kg, i.v. infusion): +89%
Max, maximum increase in percent in frequency (circulation of dogs; dog, at 600 μg/kg, i.v. infusion): +104%
ED30, dosage for 30% increase in frequency (circulation of dogs; dog, i.v. infusion): 130 µg/kg
ED30, dosage for 30% increase in inotropy (circulation of dogs; dog, i.v. infusion): 130 µg/kg
heart's oxygen demand (circulation of dogs; dog): excessive rise in the heart's oxygen demand
peripheral cardiovascular system (circulation of dogs; dog): a dilation of the peripheral cardiovascular system
contractility, cardiac frequency and cardiac output (circulation of dogs): increases in contractility, cardiac frequency and cardiac output
LD50 (rats): 26000 µg/kg

Reference: US4356322A, “Phenoxyalkanolamine derivatives” (Veb Arzneimittelwerk Dresden, priority 1977, dated 1982)
